These results are taken from patent US4663310A, “Renin inhibitors containing 2-substituted statine” (Merck & Co., Inc., priority 1984, dated 1987).

The target of assay [1] is T1, human plasma renin (Homo sapiens, UniProt P00797).
T1 construct: Further assays measured human plasma renin and dog plasma renin; from tissue; host or cells: human plasma
T1 sequence (P00797 67-406): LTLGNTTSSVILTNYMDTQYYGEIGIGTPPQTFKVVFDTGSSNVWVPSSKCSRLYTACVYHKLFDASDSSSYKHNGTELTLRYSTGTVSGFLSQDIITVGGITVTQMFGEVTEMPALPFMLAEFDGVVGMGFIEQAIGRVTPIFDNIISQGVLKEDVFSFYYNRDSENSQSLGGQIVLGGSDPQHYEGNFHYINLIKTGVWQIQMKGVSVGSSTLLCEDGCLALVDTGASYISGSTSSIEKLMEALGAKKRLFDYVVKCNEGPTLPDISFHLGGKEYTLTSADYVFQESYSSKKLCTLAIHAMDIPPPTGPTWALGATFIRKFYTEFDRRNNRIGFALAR
Briefly: Human plasma renin assay. Conditions: read-out: Renin Inhibition Human Plasma I50. In kind it is biochemical. The method, then: (§1) Assays were carried out in order to determine the inhibitory potency of the peptides of the present invention. One assay measured the inhibition of hog kidney renin, and was in accordance with the procedure described in Rich et al., J. Med. Chem. 23: 27, 1980, except that a pH of 7.3 was used. Another assay measured the inhibition of human kidney renin purified as described in Bangham, D. R., Robertson, I., Robinson, J. I. S., Robinson, C. J., and Tree, M., Clinical Science and Molecular Medicine, 48 (Supp. 2): 136s-159s (1975), and further purified by affinity chromatography on pepstatin-aminohexyl-Sepharase as described in Poe, M., Wu., J. K., Florance, J. R., Radkey, J. A., Bennett, C. D., and Hoogsteen, K., J. Biol. Chem. 258: 2209-2216 (1983). The assay was also in accordance with Poe et al. cited above. Further assays measured human plasma renin and dog plasma renin in accordance with procedures described in Boger et al., Nature, 303: 81-84 (1983).

The target in assay [2] is T2, dog plasma renin (Canis lupus familiaris, UniProt Q6DYE7).
T2 construct: Further assays measured human plasma renin and dog plasma renin; from tissue; host or cells: dog plasma
T2 sequence (Q6DYE7 66-403): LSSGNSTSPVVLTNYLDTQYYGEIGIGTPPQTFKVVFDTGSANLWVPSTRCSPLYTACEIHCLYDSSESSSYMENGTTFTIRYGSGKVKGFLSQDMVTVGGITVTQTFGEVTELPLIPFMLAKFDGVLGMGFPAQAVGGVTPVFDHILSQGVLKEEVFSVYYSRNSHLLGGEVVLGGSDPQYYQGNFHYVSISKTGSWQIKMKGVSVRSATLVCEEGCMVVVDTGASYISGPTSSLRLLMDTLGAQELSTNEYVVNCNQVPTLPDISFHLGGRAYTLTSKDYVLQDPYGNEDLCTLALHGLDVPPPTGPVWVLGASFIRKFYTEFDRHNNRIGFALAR
Briefly: Dog plasma renin assay. It is filed as biochemical. Conditions: for IC50: read-out: Renin Inhibition Dog Plasma I50. The method, then:
as §1

Assay [3] deals with T3, human kidney renin (Homo sapiens, UniProt P00797).
T3 construct: human kidney renin purified as described in Bangham; from tissue; host or cells: human kidney
T3 sequence (P00797 67-406): T1 sequence (P00797 67-406)
The assay is described as follows: Inhibition of purified human kidney renin. In kind it is biochemical. Conditions: dissociation constant of the inhibited enzyme inhibitor complex. The method, then:
as §1
Results expressed as KI values refer to the dissociation constant of the inhibited enzyme inhibitor complex. This KI value was obatined as described above. Pepstatin was used as an active control.

In assay [4] the test system is hog kidney renin. Briefly: Inhibition of hog kidney renin. In kind it is biochemical. Particulars: pH 7.3; read-out: Renin Inhibition Hog Kidney I50. The method, then: as §1
Assay [5] deals with acid proteases. Conditions: cited from earlier work.
For assay [6], the system named is nephrectomized rats. Conditions: after the injection of hog renin into nephrectomized rats; Gross et al.; cited from earlier work.

In general, Ki refers to a dissociation constant, usually derived from enzyme kinetics or from competition with a known ligand. A high value points to lower affinity.

Starred links: 1 amine or outer side, 2 acyl side, 3 side chain; linkers in the order of their positions; H or OH if unused. Non-standard residues stand in square brackets, D forms with d. Residues, ends and D or L forms follow the SMILES beside them. *: point of attachment. X1 = CC(C)CC(C(=O)[*:2])[C@H](O)[C@H](CC(C)C)N[*:1]; Isobutyryl = CC(C)C(=O)*

`CC(C)C[C@H](NC(=O)[C@H](CC(C)C)[C@H](O)[C@H](Cc1ccccc1)NC(=O)[C@H](Cc1c[nH]cn1)NC(=O)[C@H](Cc1ccccc1)NC(=O)OC(C)(C)C)C(=O)NCc1ccccc1` [BOCPheHis(2- -i-Bu)AHPPALeu, tert-Butyloxycarbonyl-L-phenylalanyl-L-histidyl-4(S)-amino-3(S)-hydroxy-2(R)-iso-butyl-5-phenylpentanoyl-L-leucyl-benzylamide]: the IC50 in assay [1] was determined as 8.2 nM; in assay [2], 3.5 nM. This compound also showed a Ki in assay [3] of 9.3 nM.
In the case of `CC(C)C[C@H](NC(=O)[C@H](CC(C)C)[C@H](O)[C@H](CC(C)C)NC(=O)[C@H](Cc1c[nH]cn1)NC(=O)[C@H](Cc1ccccc1)NC(=O)OC(C)(C)C)C(=O)NCc1ccccc1` [BOCPheHis(2- -i-Bu)StaLeu], the “Renin Inhibition Dog Plasma % I” value in assay [2] (I 10^-6) is recorded as 0%. In addition, the Ki in assay [3] is 10 nM.
With `CC(C)CC[C@@H](C(=O)N[C@@H](CC(C)C)C(=O)NCc1ccccc1)[C@H](O)[C@H](Cc1ccccc1)NC(=O)[C@H](Cc1c[nH]cn1)NC(=O)[C@H](Cc1ccccc1)NC(=O)OC(C)(C)C` [BOCPheHis(2- -i-Pent)AHPPALeu], the IC50 in assay [1] is 65 nM; in assay [2], 6.2 nM. The same compound gave a Ki in assay [3] of 4.4 nM.
`CC(C)CC(C(=O)N[C@@H](CC(C)C)C(=O)N[C@@H](Cc1ccccc1)C(N)=O)[C@H](O)[C@H](CC(C)C)NC(=O)[C@H](Cc1ccccc1)NC(=O)[C@H](Cc1ccccc1)NC(=O)[C@@H]1CCCN1C(=O)[C@H](Cc1c[nH]cn1)NC(=O)C(C)C` (some centres unmarked) [IBUHisProPhePhe(2- -i-Bu)StaLeuPheNH2] (Isobutyryl-HPFF[X1]LF-NH2): the IC50 in assay [4] amounted to 22 nM.
With Pepstatin, in assay [5], the “inhibition of other acid proteases (selectivity)” value is “inhibition of a variety of other acid proteases in addition to renin”. Moreover, the “blood pressure in vivo” value in assay [6] was “reduce blood pressure”.
